12 molecules from PubChem BioAssay (NCI) can be followed below.

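A five-concentration, 48-hour dose response in 96-well plates underlies each endpoint, interpolated linearly between surrounding concentrations. At the TGI there is no net growth.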

Test systems include OVCAR-3 ovarian; CCRF-CEM leukemia; BT-549 breast; SF-539 CNS; MDA-MB-231 breast; IGROV1 ovarian; M14 melanoma; UO-31 renal; CAKI-1 renal; MDA-N; HCC-2998 colon; MOLT-4 leukemia.
Common to all, as to assay: NCI tumour cell line growth inhibition, 48 h

On to `CN(C(=O)Cc1ccccc1)n1cn[n+](CC(=O)OC(C)(C)C)c1`, for which the TGI in the assay on OVCAR-3 ovarian, in the assay on CCRF-CEM leukemia, in the assay with BT-549 breast, with SF-539 CNS, in the assay with MDA-MB-231 breast and in the assay with IGROV1 ovarian was greater than 10 µM throughout. The TGI with M14 melanoma, in the assay with UO-31 renal, in the assay with CAKI-1 renal, in the assay on MDA-N, in the assay with HCC-2998 colon and in the assay on MOLT-4 leukemia was greater than 10 µM each time.

In the case of `CC(C)c1cc(=O)[nH]c2cc(N)ccc12`, the TGI with OVCAR-3 ovarian, with CCRF-CEM leukemia, with BT-549 breast, with SF-539 CNS, with MDA-MB-231 breast and with IGROV1 ovarian was greater than 100 µM in each case. Moreover, the TGI with M14 melanoma, in the assay on UO-31 renal, with CAKI-1 renal, with MDA-N, in the assay with HCC-2998 colon and in the assay on MOLT-4 leukemia was greater than 100 µM in each case.

On to `NC1=Nc2cc(C(F)(F)F)ccc2Sc2nc3ccccc3n21`, for which the TGI is greater than 100 µM in the assay on OVCAR-3 ovarian; greater than 24.8 µM in the assay with CCRF-CEM leukemia; greater than 100 µM with BT-549 breast; greater than 100 µM in the assay on SF-539 CNS; greater than 100 µM in the assay with MDA-MB-231 breast; greater than 100 µM in the assay on IGROV1 ovarian. The TGI in the assay with M14 melanoma is greater than 43.2 µM; in the assay with UO-31 renal it was greater than 100 µM; in the assay with CAKI-1 renal, greater than 100 µM; in the assay with MDA-N, greater than 100 µM; in the assay with HCC-2998 colon, greater than 100 µM; with MOLT-4 leukemia it was greater than 100 µM.

In the case of `CCCOC(=O)c1cc(O)c(O)c(O)c1`, the TGI is 79.8 µM in the assay with OVCAR-3 ovarian; greater than 100 µM with CCRF-CEM leukemia; greater than 100 µM in the assay with BT-549 breast; 70.9 µM in the assay on SF-539 CNS; greater than 100 µM in the assay with MDA-MB-231 breast; greater than 100 µM with IGROV1 ovarian. Besides, the TGI in the assay on M14 melanoma is greater than 100 µM; with UO-31 renal it was greater than 100 µM; with CAKI-1 renal it was greater than 100 µM; in the assay on MDA-N it was 76.9 µM; in the assay with HCC-2998 colon, greater than 100 µM; in the assay on MOLT-4 leukemia, greater than 100 µM.

As to `CC(C)(C)OC(=O)Cn1ncn(NC(=O)Cc2ccccc2)c1=S`, the TGI in the assay on OVCAR-3 ovarian, in the assay with CCRF-CEM leukemia, in the assay with BT-549 breast, with SF-539 CNS, in the assay on MDA-MB-231 breast and in the assay with IGROV1 ovarian was greater than 10 µM each time. Further, the TGI with M14 melanoma, in the assay with UO-31 renal, in the assay with CAKI-1 renal, in the assay on MDA-N, in the assay on HCC-2998 colon and in the assay with MOLT-4 leukemia was greater than 10 µM throughout.

For `Nc1nc(Sc2ccc([N+](=O)[O-])c3nonc23)c2[nH]cnc2n1`, the TGI in the assay with OVCAR-3 ovarian is 13.8 µM; with CCRF-CEM leukemia, 2.13 µM; with BT-549 breast it was 18 µM; in the assay on SF-539 CNS, 14.8 µM; with MDA-MB-231 breast it was 13.7 µM; in the assay with IGROV1 ovarian, 17.1 µM. Also, the TGI was 8.72 µM in the assay with M14 melanoma; 2.07 µM in the assay on UO-31 renal; 5.74 µM in the assay with CAKI-1 renal; 12.2 µM in the assay on MDA-N; 7.93 µM in the assay with HCC-2998 colon; 1.8 µM with MOLT-4 leukemia.

Regarding `ClC1=NSSC1(Cl)Cl`, the TGI was 64.5 µM in the assay with OVCAR-3 ovarian; greater than 100 µM in the assay with CCRF-CEM leukemia; greater than 100 µM in the assay with BT-549 breast; greater than 100 µM with SF-539 CNS; 71.2 µM in the assay with MDA-MB-231 breast; greater than 100 µM with IGROV1 ovarian. The TGI in the assay with M14 melanoma is 40.1 µM; in the assay on UO-31 renal, 78 µM; with CAKI-1 renal, 34.8 µM; in the assay on MDA-N it was 62.1 µM; with HCC-2998 colon it was greater than 100 µM; in the assay with MOLT-4 leukemia, 53.4 µM.

Take `Cc1nc2ccc(NCCN(C)C)c3c(=O)c4ccccc4n1c23`: the TGI with OVCAR-3 ovarian is 35.6 µM; in the assay on CCRF-CEM leukemia it was 47.5 µM; with BT-549 breast, 23.6 µM; in the assay on SF-539 CNS, 16 µM; in the assay with MDA-MB-231 breast, 5.8 µM; in the assay on IGROV1 ovarian, 16.6 µM. Besides, the TGI amounted to 16.4 µM in the assay with M14 melanoma; 11.1 µM in the assay with UO-31 renal; 13.8 µM in the assay on CAKI-1 renal; 12.4 µM in the assay on MDA-N; 16.7 µM in the assay on HCC-2998 colon; 22.2 µM with MOLT-4 leukemia.

For the molecule `Cc1cccc2c(=O)c3c(O)cc(O)cc3n(C)c12`, the TGI in the assay on OVCAR-3 ovarian, in the assay on CCRF-CEM leukemia, in the assay on BT-549 breast, in the assay on SF-539 CNS, with MDA-MB-231 breast and with IGROV1 ovarian was greater than 100 µM in each case. For the same molecule, the TGI in the assay on M14 melanoma, in the assay on CAKI-1 renal, in the assay on MDA-N, in the assay on HCC-2998 colon and in the assay with MOLT-4 leukemia was greater than 100 µM in each case.

For the molecule `CC(=O)OC1CCn2c1nc1cc([N+](=O)[O-])c(C)cc12` (stereo not drawn), the TGI in the assay with OVCAR-3 ovarian, in the assay with CCRF-CEM leukemia, in the assay on BT-549 breast, in the assay on SF-539 CNS, with MDA-MB-231 breast and with IGROV1 ovarian was greater than 100 µM each time. The TGI in the assay with M14 melanoma, in the assay with UO-31 renal, with CAKI-1 renal, in the assay with MDA-N, in the assay with HCC-2998 colon and in the assay on MOLT-4 leukemia was greater than 100 µM in each case.

With `O=C1c2cc3c(cc2NC(c2ccccc2F)C1O)OCO3` (stereo not drawn), the TGI in the assay with OVCAR-3 ovarian is greater than 62.7 µM; with CCRF-CEM leukemia it was 97.7 µM; in the assay on BT-549 breast, greater than 100 µM; in the assay on SF-539 CNS it was 35.2 µM; in the assay on MDA-MB-231 breast, greater than 76.2 µM; with IGROV1 ovarian, greater than 100 µM. Also, the TGI in the assay on M14 melanoma is greater than 100 µM; with UO-31 renal it was greater than 75.8 µM; in the assay on CAKI-1 renal, greater than 77.8 µM; in the assay on MDA-N, 8.29 µM; in the assay on HCC-2998 colon it was greater than 75.1 µM; in the assay on MOLT-4 leukemia, greater than 83.9 µM.

For `Cc1ccc(C(=O)N/N=C(\N=Nc2ccc([N+](=O)[O-])cc2)c2ccc(N(CCC#N)CCC#N)cc2C)cc1`, the TGI in the assay on OVCAR-3 ovarian, with CCRF-CEM leukemia, in the assay with BT-549 breast, in the assay with SF-539 CNS, in the assay on MDA-MB-231 breast and in the assay with IGROV1 ovarian was greater than 100 µM throughout. In addition, the TGI with M14 melanoma, with UO-31 renal, with CAKI-1 renal, in the assay on MDA-N, in the assay with HCC-2998 colon and in the assay on MOLT-4 leukemia was greater than 100 µM in each case.
